Values joined by “and” are separate entries in the source; they are usually repeats but may differ in a detail not shown here. Equal entries are not always repeated.
Experiments:
NK lymphocytes = assay: Activation test for NK lymphocytes assessed by means of rosette formation; format: in vivo, female mice belonging to BALB/C strain; settings: Lot B controls, muramyl dipeptide only
Protocol: In carrying out such a test, all six isomers of the monoacetic derivative of the peptide were used, individually, both in normoergic (germ free) animals (lot A) and in animals previously immunized with muramyl dipeptide (lot B). The method and results of the test are hereinafter reported.
A number of groups, each consisting of 18 randomized animals, were inoculated with 0.1 ml/each of normal saline solution (controls) or 0.1 ml/each of monoacetic peptide in its 6 possible isomers dissolved in normal saline solution. The 17.5 mg/kg dose administered to the animals corresponds to 1/20 of the LD found with respect to these peptides.
Treated and control animals were sacrificed in groups of 6 on the 11th, 13th and 18th day after the inoculation of the normal saline solution or of the peptide. […]
Cell survival was assessed by means of the supravital staining technique with trypan blue. […]
FCS, at a 10% ratio, was added to the above mentioned suspension. Following 5 minutes of incubation at +37 °C and 5 minutes of centrifugation at 200 rpm, the samples were incubated at +4 °C for 18 hours prior to reading the results.
The lymphocytes encircled by 3 or more ram's erythrocytes were considered as rosette-forming lymphocytes. The significance was assessed by means of Student's "T" test. […]

Lewis Lung Carcinoma = assay: Lewis Lung Carcinoma, third set of experiments (with MDP); format: in vivo, female mice C57BI/6
Protocol: The tested compound was Ala-Leu-Phe = P1 (SF080) (17.5 mg/kg) in the model of tumour disease caused by Lewis Lung Carcinoma. The compound was also evaluated in combination with muramyl dipeptide (MDP).
Animals: female mice C57BI/6 (Charles River) the average weight of which was 20g were used. The experiment involved overall 48 mice.
The tumour cells of LLC were obtained from the fourth passage of tumour cells. The total number of cells was 2 x 10^5 in 0.1 ml of Hanks solution. The cells were injected subcutaneously into axillary region.
The peptide P1 was administered i.p. in suspension with propylenglycol (0.1 ml/50 ml) in physiological solution. […] The same way of administration as in tested animals (i.p.) was used.
The animals were divided into 4 groups each having 12 mice. In groups 2 and 3 MDP was administered subcutaneously in a dose of 100 µg (0.5 ml physiol. solution per mouse). The protocol of the test is as follows.
The animals in all groups were observed daily for tumour growth. In the control group the tumour growth was so rapid and the animals were in such a condition that the experiment was terminated after 18 days from the administration of tumour cells. Mice were sacrificed and tumour mass was excised and weighed. Both lobes of lungs were inspected for the presence of metastases.
The following parameters have been evaluated in this experiment: • a) the percentage of animals not having the tumour • b) the average weight of the tumour • c) the percentage of animals with metastases in lungs • d) the average number of metastases in case of positive animals
Statistical analysis was performed by the method of one factorial analysis of variance (ANOVA), Dunnett's test and chi-square test. […]

[1] = group 2: MDP 100 µg s.c. day -3, day 18

Q: muramyl dipeptide [MDP] was tested. Which “rosette formation after preventive immunization” value (NK lymphocytes) did it give?
A: Its value is “significant decrement”.

Q: And the “Weight of tumours, AVG” value (Lewis Lung Carcinoma; [1])?
A: Its value is 3.24 g.

Q: And the “Weight of tumours, SUM” value (Lewis Lung Carcinoma; [1])?
A: Its value is 29.16 g.

Q: What about the “average number of metastases, AVG” value (Lewis Lung Carcinoma; [1]) of the same substance?
A: The value was 1.

Q: What about the metastase free animals (Lewis Lung Carcinoma; [1]) of the same substance?
A: Its metastase free animals is 64%.

Q: What about the “number of metastases, SUM” value (Lewis Lung Carcinoma; [1]) of the same substance?
A: The value was 9.

Q: And the tumour-free animals (Lewis Lung Carcinoma; [1])?
A: Its tumour-free animals is 18%.

Q: And the “number of metastases (meta)” value (Lewis Lung Carcinoma; individual animals, lungs, group 2: MDP 100 µg s.c. day -3, day 18)?
A: Its value is 1 and 3 (2×) and 0 (7×) and 2.

Q: What about the Weight of tumours (Lewis Lung Carcinoma; individual animals, group 2: MDP 100 µg subcutaneously day -3, 18 days after tumour cells) of the same substance?
A: Its Weight of tumours is 4.88 g and 4.48 g and 1.97 g and 3.13 g and 0 g (2×) and 3.57 g and 2.72 g and 1.81 g and 4.11 g and 2.49 g.
